Results published in patent US10800815B2, “Kv1.3 potassium channel antagonists” (cgtx-Peptide Development GmbH, priority 2014, dated 2020).

Experiment: in vivo
Assay type: in vivo
Details: rat, i.v., 750 μg/kg BW; listed as cgtx-544
Experimental: FIG. 34 Decrease of cgtx-544(Sing) in the serum of treated rats after i.v. injection. The concentration of unbound circulating cgtx-544(Sing) was calculated on the basis of a standard curve. Standard error of the mean is depicted in the error bars (n=6).
Rats received i.v. injections of cgtx-544(Sing) (750 μg/kg BW). Blood was withdrawn at time points 0, 1, 10 and 60 minutes. Subsequently, serum was prepared from blood samples. The cgtx-544 content in these samples was analyzed electrophysiologically by measuring the blocking effect on Kv1.3 channels expressed in CHO cells. […] In order to study the amount of unbound cgtx-544(Sing) in the rat, the amount of cgtx-544(Sing) present in the circulating blood at the time points referred above was calculated through a calibration curve. This calibration curve was obtained by adding known quantities of cgtx-544(Sing) to blood serum and subsequent electrophysiological measurements on Kv1.3 channels. The block of Kv1.3 currents by these spiked samples was similar to that obtained with cgtx-544(Sing) in the absence of serum (data not shown).

SMILES: CC[C@H](C)[C@H](NC(=O)[C@@H](N)[C@@H](C)O)C(=O)N[C@H](C(=O)N[C@@H](CC(N)=O)C(=O)N[C@H](C(=O)N[C@@H](CCCCN)C(=O)N[C@H]1CSSC[C@@H]2NC(=O)[C@H](CCCCN)NC(=O)CNC(=O)[C@H](Cc3ccc(O)cc3)NC(=O)[C@@H]3CCCN3C(=O)[C@@H]3CSSC[C@@H](C(=O)O)NC(=O)[C@H](CCCNC(=N)N)NC(=O)[C@H](CC(N)=O)NC(=O)[C@@H]4CSSC[C@H](NC(=O)[C@@H]5CCCN5C(=O)[C@@H]5CCCN5C(=O)[C@H](CC(C)C)NC(=O)[C@H](CSSC[C@H](NC(=O)[C@H](CCCCN)NC(=O)[C@H](CCCNC(=N)N)NC(=O)[C@H](CC(N)=O)NC(=O)[C@H](CCSC)NC2=O)C(=O)N[C@@H](CCCCN)C(=O)N4)NC(=O)[C@H](CCC(N)=O)NC(=O)[C@H](CCCCN)NC(=O)[C@@H]2CCCN2C(=O)[C@H](CO)NC(=O)[C@H]([C@@H](C)O)NC1=O)C(=O)N[C@@H](CCCCN)C(=O)N[C@@H](C)C(=O)N[C@@H](CCC(N)=O)C(=O)N[C@@H]([C@@H](C)O)C(=O)NCC(=O)N3)C(C)C)[C@@H](C)CC [Compound 7]
- in vivo half-life: approximately 26 min
